One may read the EC50 as the concentration needed to bring the measured effect to its halfway point.

The first assay deals with HCV 1b genotype. As to the kind of experiment: HCV Replicon assay (HCV-neo replicon cells, wild-type). It is filed as cell-based. The conditions noted are these: Hepatitis C virus, HCV 1b genotype replicon; class symbols. The procedure, abridged: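 Assay used wild-type HCV genotype 1b replicon cells carrying neo, with luciferase reporter read-outs in some formats.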
With `COC(=O)N[C@@H](C(=O)N1CCC[C@H]1c1nc2cc(-c3cnc(-c4cccc5[nH]c([C@@H]6CCCN6C(=O)[C@@H](c6ccccc6)N6CCN(C)CC6)nc45)o3)ccc2[nH]1)c1ccccc1` [Example J29, methyl ((1R)-2-(((2S)-2-(5-(2-(2-((2S)-1-((2R)-2-(4-methyl-1-piperazinyl)-2-phenylacetyl)-2-pyrrolidinyl)-1H-benzimidazol-4-yl)-1,3-oxazol-5-yl)-1H-benzimidazol-2-yl)-1-pyrrolidinyl)-2-oxo-1-phenylethyl) carbamate], the 50% effective concentration (EC50) is less than 4.57 nM.

In the case of `C[C@H](NC(=O)OCc1ccccc1)c1nc2cc(CCc3ccc4[nH]c([C@H](C)NC(=O)OCc5ccccc5)nc4c3)ccc2[nH]1` [OL1, benzyl((1S)-1-(5-(2-(2-((1)-1-(((benzyloxy)carbonyl)amino)ethyl)-1H-benzimidazol-6-yl)ethyl)-1H-benzimidazol-2-yl)ethyl)carbamate], the concentration for a half-maximal effect (EC50) lay within 4.57 to 99 nM.

With `CC(=O)N1CCC[C@H]1c1nc2ccc(C#Cc3ccc4[nH]c([C@@H]5CCCN5C(=O)Cc5ccccc5)nc4c3)cc2[nH]1` [Example M54.16, 5-((2-((2S)-1-acetyl-2-pyrrolidinyl)-1H-benzimidazol-6-yl)ethynyl)-2-((2S)-1-(phenylacetyl)-2-pyrrolidinyl)-1H-benzimidazole], the EC50 lay within 4.57 to 99 nM.

Consider `CC(=O)N1CCC[C@H]1c1nc2ccc(C#Cc3ccc4[nH]c([C@@H]5CCCN5C(=O)N5CCOCC5)nc4c3)cc2[nH]1` [Example M54.33, 5-((2-((2S)-1-acetyl-2-pyrrolidinyl)-1H-benzimidazol-6-yl)ethynyl)-2-((2S)-1-(4-morpholinyl-carbonyl)-2-pyrrolidinyl)-1H-benzimidazole], for which the concentration for a half-maximal effect (EC50) was in the range of 4.57 to 99 nM.

In the case of `CC(=O)N[C@@H](C(=O)N1CCC[C@H]1c1nc2cc(-c3cnc(-c4cccc5[nH]c([C@@H]6CCCN6C(=O)[C@H](NC(C)=O)c6ccccc6)nc45)o3)ccc2[nH]1)c1ccccc1` [Example J12, N-((1R)-2-((2S)-2-(4-(5-(2-((2S)-1-((2R)-2-acetamido-2-phenylacetyl)-2-pyrrolidinyl)-1H-benzimidazol-5-yl)-1,3-oxazol-2-yl)-1H-benzimidazol-2-yl)-1-pyrrolidinyl)-2-oxo-1-phenylethyl) acetamide], the concentration giving a half-maximal response (EC50) is less than 4.57 nM.

On to `O=C(Cc1ccccc1)N1CCC[C@H]1c1nc2cc(-c3cnc(-c4cccc5[nH]c([C@@H]6CCCN6C(=O)Cc6ccccc6)nc45)o3)ccc2[nH]1` [Example J7, 2-((2S)-1-(phenylacetyl)-2-pyrrolidinyl)-4-(5-(2-((2S)-1-(phenylacetyl)-2-pyrrolidinyl)-1H-benzimidazol-5-yl)-1,3-oxazol-2-yl)-1H-benzimidazole], for which the EC50 was in the range of 4.57 to 99 nM.

In the case of `O=C(CCOc1ccccc1)N1CCC[C@H]1c1nc2ccc(C#Cc3ccc4[nH]c([C@@H]5CCCN5C(=O)[C@H]5CCCO5)nc4c3)cc2[nH]1` [Example M54.15, 5-((2-((2S)-1-(3-phenoxypropanoyl)-2-pyrrolidinyl)-1H-benzimidazol-6-yl)ethynyl)-2-((2S)-1-((2R)-tetrahydro-2-furanylcarbonyl)-2-pyrrolidinyl)-1H-benzimidazole], the EC50 lay within 4.57 to 99 nM.

The assay is the same for the next values; noted with them: Hepatitis C virus, HCV 1b genotype replicon; numeric values.
On to `O=C(c1cccs1)N1CCC[C@H]1c1nc2cc(C#Cc3ccc4[nH]c([C@@H]5CCCN5C(=O)c5cccs5)nc4c3)ccc2[nH]1` [Example M10, 5,5′-(1,2-ethynediyl)bis(2-((2S)-1-(2-thienylcarbonyl)-2-pyrrolidinyl)-1H-benzimidazole)], for which the concentration giving a half-maximal response (EC50) was 10 nM.

On to `CCCO[C@@H]1C[C@@H](c2nc3cc(CCc4ccc5nc([C@@H]6C[C@@H](OCCC)CN6C(=O)OCc6ccccc6)[nH]c5c4)ccc3[nH]2)N(C(=O)OCc2ccccc2)C1` [Example F6, benzyl (2S,4R)-2-(5-(2-(2-((2S,4R)-1-((benzyloxy)carbonyl)-4-propoxy-2-pyrrolidinyl)-1H-benzimidazol-6-yl)ethyl)-1H-benzimidazol-2-yl)-4-propoxy-1-pyrrolidinecarboxylate], for which the concentration giving a half-maximal response (EC50) turned out to be 480 nM.

For the origin of these results see patent US7906655B2, “Hepatitis C virus inhibitors” (Bristol-Myers Squibb Company, priority 2008, dated 2011).
